The test system of one test is bananas. Briefly: Addition of ozone to controlled-atmosphere and regular-atmosphere containers of bananas. Particulars: ozone added. As for the experimental part: In another embodiment, a controlled-atmosphere shipping container is filled with bananas packaged in perforated bags, and ozone is added to the controlled atmosphere. If a non-ozonated controlled-atmosphere container is well sealed, ethylene will accumulate, offsetting the benefit of slowed respiration afforded by the controlled atmosphere.

The next test relates to Cavendish bananas. Description: Storage of harvested Cavendish bananas in banavac polyethylene bags in containers with or without ozone. Particulars: Container 7: 200 to 300 parts per billion ozone in surrounding atmosphere; polyethylene bags tied closed; regular atmosphere (20.8 percent oxygen); 56 days of storage; versus Container 8 without ozone. An excerpt: Experimental conditions included loading harvested Cavendish bananas in polyethylene bags (known as “banavac” bags) into two containers, both having a regular atmosphere (containing 20.8 percent oxygen), with vents partially opened for the first four weeks and completely closed for the last four weeks of the experimental period. The experimental difference between the containers was the maintenance of 200 to 300 parts per billion of ozone in Container 7, and the absence of ozone from Container 8.
Container 8 in the experiment detailed in FIG. 3 was loaded with bananas in modified atmosphere packaging (here, polyethylene bags tied closed with a knot). The bananas were stored in the container without added ozone. At 56 days after harvest, all of the bananas were spoiled to the point of liquefaction.
Container 7 in the experiment detailed in FIG. 3 was loaded with bananas in modified atmosphere packaging (here also, polyethylene bags tied closed with a knot). According to an embodiment of the present invention, the bags of bananas in Container 7 were exposed to a surrounding atmosphere containing an ozone level of 200 to 300 parts per billion.

As for `O=[O+][O-]` [ozone], in the test with bananas, the “climacteric ripening of bananas” value is reported as “delay climacteric ripening of bananas” and the “overall ethylene levels in containers” value is reported as “reduce overall ethylene levels”. In addition, the “condition of the bananas after storage” value in the test on Cavendish bananas is listed as “markedly superior condition compared to that of the control bananas”.

Values taken from patent US20080166694A1, “Plant tissue packaging process” (priority 2007, published 2008).
